Measured values taken from patent US20070185013A1, “Use of chk1 inhibitors to control cell proliferation” (ICOS CORPORATION, priority 2003, published 2007).

Columns and labels:
tumor cells = experiment: Cell-based proliferation (sensitization) assay (Example 2); settings: ratio of GI90 of the chemotherapy agent in absence to that in presence of Chk1 inhibitor
Method: Chk1 inhibitors were tested in a cell-based proliferation assay for the ability to sensitize tumor cells to ionizing radiation or chemotherapy agents. Chk1 inhibitors were tested in combination with 5-FU, gemicitabine, ionizing radiation, camptothecin, etoposide, hydroxyurea, cisplatin, fludarabine, Ara-C and aphidicolin. For each experiment, a serial dilution of each compound in combination with a ten-point dilution of each chemotherapy agent was included, in order to determine the concentration of chemotherapeutic required to inhibit the growth of 90% (GI90) of the cells in the presence and absence of the Chk1 inhibitor. This ratio of GI90 in the absence of Chk1 inhibitor to that in the presence of Chk1 inhibitor is called the “fold sensitization.” Fold sensitization was plotted as a function of Chk1 inhibitor concentration and the amount of drug required to yield two-fold sensitization was calculated. […] Another parameter analyzed was the fold sensitization achieved at the LD50 (the dose of compound alone that inhibits growth of 50% of cells) for the compound. These two values allow direct ranking of both the potency and toxicity of Chk1 inhibitors with respect to one another.

Chk1 = Chk1 serine 296 phosphorylation, Western blot in HT29 cells; format: cell-based, human; settings: tumor cells treated with gemcitabine; Chk1 inhibitors for 15 minutes
Method: Phosphorylation at this site is not inhibited by Wortinannin, which inhibits Atm and Atr. Therefore the phosphorylation of serine 296 is distinct from phosphorylation at serines 317 and 345 described in Example 12. […] Therefore, this approach may be used to monitor Chk1 activity in tumors in response to Chk1 activators. Further, this approach may be used to measure inhibition of Chk1 activation by Chk1 inhibitors.
Thus, HT 29 cells were treated with 20 μM gemcitabine for two hours. The gemcitabine was washed out of the cell growth media and cells were incubated for 22 additional hours. Protein lysates were prepared and separated by an SDS-polyacrylamide gel electrophoresis. Proteins were transferred to polyvinylidene fluoride (PVDF) membranes and probed with antisera (Cell Signalling) specific for phosphorlyated serine 296 (Cell Signalling). […] Further, HT29 cells treated with selective Chk1 inhibitors for 15 minutes show no serine 296 phosphorylation.

HT29 cells = experiment: Cell cycle phase distribution by propidium iodide DNA content; format: cell-based, human; settings: low-level camptothecin, 20 nM for 24 hours
Source text: The proportion of cells in different phases of the cell cycle can be measured by those skilled in the art using any one of a variety of techniques. For example, a fluorescent DNA-binding dye, propidium iodide, can be used to distinguish cells in different cell cycle phases. Since cells in G2 have twice as much DNA as cells in G1, and S phase cells show an intermediate amount of DNA, the technique allows one to identify cells in different phases based on the DNA content of a cell. This method can be carried out on cell lines and tumor specimens (Cerra et al., Methods in Cell Biology, 33:1-12, 1990) Furthermore, cells in S phase can be labeled with the nucleotide analog, bromo-deoxyuridine (BrdU) and then fixed and stained with an fluorescent-tagged antibody to BrdU. Both of these methods employ fluorescence cytometry or fluorescence activity cell sorting (FACS) to quantify the proportion of cells staining with these fluorescent markers. […]
Two cell samples, each containing the same human carcinoma cell line (HT29) were prepared. Using propidium iodide (PI) to monitor DNA content, the percentage of cells the G1, S, and G2/M phases of the cell cycle were measured before and after contact with low levels of camptothecin. […]

SMILES | Fold Sensitization to Agent by Chk1 Inhibitor (tumor cells) [fold] | other results
O=c1[nH]cc(F)c(=O)[nH]1 [5-FU, 5-fluorouracil] | 12 | 
Nc1ccn([C@@H]2O[C@H](CO)[C@@H](O)[C@@H]2O)c(=O)n1 [Ara-C, cytosine arabinoside] | 9 | 
N.N.[Cl][Pt][Cl] [Cisplatin, cisplatin] | 3 | 
COc1cc([C@@H]2c3cc4c(cc3[C@@H](O[C@@H]3O[C@@H]5CO[C@@H](C)O[C@H]5[C@H](O)[C@H]3O)[C@H]3COC(=O)[C@H]23)OCO4)cc(OC)c1O [Etoposide, etoposide] | 3 | 
COC[C@H]1OC(=O)c2coc3c2[C@@]1(C)C1=C(C3=O)[C@@H]2CCC(=O)[C@@]2(C)C[C@H]1OC(C)=O [Wortinannin] |  | inhibition of Chk1 serine 296 phosphorylation (Chk1): not inhibited
CC[C@@]1(O)C(=O)OCc2c1cc1n(c2=O)Cc2cc3ccccc3nc2-1 [camptothecin] | 5 | G1 (%) (HT29 cells; PI staining): 6.75%; G2/M* (%) (HT29 cells; combined total in G2 + M phase): 7%
